US9321743B2, “Compositions and methods of inhibiting N-acylethanolamine-hydrolyzing acid amidase” (The Regents of the University of California, priority 2007, dated 2016)

Experiments:
[1] = tested on: carrageenan-induced inflammation; experiment: mouse carrageenan model (carrageenan-soaked polyethylene sponge implanted under the dorsal skin); assay type: in vivo
From the text: The contribution of endogenous PEA to inflammatory processes remains largely undefined. […] The inventors have previously shown that the proinflammatory phorbol ester, 12-O-tetradecanoylphorbol-13-acetate (TPA), decreases dermal PEA levels following skin inflammation. These findings raised the possibility that reduced PEA levels during inflammation may allow for the progression of the inflammatory process. To further explore this idea, the inventors evaluated the effects of carrageenan-induced inflammation on PEA levels in the mouse. Polyethylene sponges injected with vehicle (10% DMSO in saline) or carrageenan (1%) were surgically implanted under the dorsal skin of mice. After 3 days, the mice were sacrificed and the sponges were removed and analyzed for inflammatory cell infiltration and cellular PEA content. In carrageenan-treated animals the number of infiltrating cells (primarily neutrophils) increased by approximately 3-fold as can be taken from FIG. 2. Here, surgical implantation of vehicle (v) or carrageenan (c) soaked sponges under the dorsal skin of Swiss mice for 3 days (A) increased the number of infiltrating neutrophils and (B) decreased the levels of endogenous cellular PEA. (C) Time course of the effects of vehicle (open symbols) or carrageen (closed symbols) on PEA levels **P<0.01 or ***P<0.001 vs. V, t-test or ANOVA, followed by Dunnett's post-hoc as appropriate (n=6).
As a first step in determining the role of endogenous PEA in inflammation, the inventors examined the effects of local application of PEA on inflammatory responses. Polyethylene sponges injected with vehicle or carrageenan (1%) and either vehicle (10% DMSO in saline) or various doses of PEA (0.1-50 μg) were surgically implanted under the dorsal skin of mice. After 3 days, the mice were killed and the sponges were removed and analyzed for cell infiltration. […] Here panels (A-B) depict the effect of vehicle (open bars), carrageenan (filled bars) or PEA (0.1-50 μg) in Swiss mice, black bars; PEA (50 μg in PPAR-α−/− mice), scored as the number of infiltrating inflammatory cells into a polyethylene sponge (size) injected with vehicle, carrageenan (1%) or PEA, implanted under the dorsal skin of (A) Swiss mice or (B) wildtype C57BL6 mice (+/+) or PPAR-α/− mice for 3 days. **P<0.01 or ***P<0.001 vs. V, ## P<0.01 vs. carrageenan control. ANOVA, followed by Tukey's or Dunnett's post-hoc as appropriate (n=6). Thus, it should be appreciated that peripheral inflammation is associated with decreased PEA synthesis in infiltrating cells, and that restoring PEA levels by exogenous PEA administration reduces inflammatory responses.
Polyethylene sponges (1 cm^3) were injected with either vehicle (100 μl of water:DMSO (9:1), V, open bars), carrageenan (1%, filled bars), URB597 (30 μg), and URB783 (30 μg) as indicated. **P<0.01 or ***P<0.001 vs. V, ## P<0.01 vs. carrageenan control. ANOVA, followed by Tukey's or Dunnett's post-hoc as appropriate (n=5-7).

recombinant NAAA = recombinant NAAA (Rattus norvegicus (Rat), UniProt Q5KTC7); experiment: NAAA assay; assay type: biochemical; conditions: read-out: IC50 of NAAA inhibition
Procedure: Recombinant NAAA or native rat lung NAAA was incubated at 37° C. for 30 min in 0.2 ml of sodium hydrogen phosphate buffer (50 mM, pH 5.0) containing 0.1% Triton X-100, 3 mM dithiothreitol (DTT) and […] heptadecenoylethanolamide as substrate. The reaction was terminated by the addition of 0.2 ml cold methanol containing […] of heptadecanoic acid (HDA, NuChek Prep, Elysian, Minn.). Samples were analyzed by LC/MS (liquid chromatography/mass spectrometry). Heptadecanoic acid was eluted on an XDB Eclipse C18 column isocratically at 2.2 ml/min for 1 min with a solvent mixture of 95% methanol and 5% water, both containing 0.25% acetic acid and 5 mM ammonium acetate. The column temperature was 50° C. ESI was in the negative mode, capillary voltage was 4 kV, and fragmentor voltage was 100 V. N2 was used as drying gas at a flow rate of 13 liters/min and a temperature of 350° C. Nebulizer pressure was set at 60 psi. [M-H]-was monitored in SIM mode using heptadecanoic acid as internal standard. Calibration curves were generated using commercial heptadecenoic acid (Nu-Chek Prep, m/z=267).

spinal cord injury = spinal cord injury (SCI) model, extradural clip compression; assay type: in vivo, mouse; conditions: spinal cord tissue 24 hours after SCI, local administration after SCI
Procedure: In the spinal cord injury (SCI) model, extradural compression of a section of the spinal cord exposed via a four-level T5-T8 aminectomy, caused a substantial increase in iNOS expression in the inflammatory cells as well as in nuclei of […] in the white and gray matter of the spinal cord tissues collected from mice 24 hours after SCI. No iNOS staining was detected in the spinal cord obtained from sham mice. […] A typical experimental protocol is described below.
Mice were randomized into 4 groups (n=40 animals/group). Sham animals were subjected to the surgical procedure except that the aneurysm clip was not applied and treated locally at the spinal cord T5-T8 level with vehicle (saline) or 3 (30 μg/mouse) 1 h and 6 h after surgical procedure. […]
Immunohistochemical localization of PAR, nitrotyrosine, FAS-ligand, Bax, Bcl-2 and iNOS. Twenty-four hours after SCI, nitrotyrosine, a specific marker of nitrosative stress, was measured by immunohistochemical analysis in the spinal cord sections to determine the localization of “peroxynitrite formation” and/or other nitrogen derivatives produced during SCI. […] Specific labeling was detected with a biotin-conjugated goat anti-rabbit IgG and avidin-biotin peroxidase complex ([…]). […]

[2] = 30 μg in sponge, 3 days, Swiss mice

recombinant NAAA, sequence (Q5KTC7 34-362): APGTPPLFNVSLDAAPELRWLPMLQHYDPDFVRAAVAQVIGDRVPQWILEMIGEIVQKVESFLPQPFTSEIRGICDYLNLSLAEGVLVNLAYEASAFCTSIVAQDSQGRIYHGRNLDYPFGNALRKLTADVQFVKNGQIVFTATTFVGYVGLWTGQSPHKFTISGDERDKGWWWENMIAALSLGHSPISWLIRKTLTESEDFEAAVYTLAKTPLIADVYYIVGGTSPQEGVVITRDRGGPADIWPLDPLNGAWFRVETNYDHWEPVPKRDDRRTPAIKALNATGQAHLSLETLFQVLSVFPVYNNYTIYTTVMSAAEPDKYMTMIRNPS

## CCCCCCCCCCCCCCCC(=O)NCCO [PEA, N-palmitoylethanolamine, reference compound]
[1]; PEA 50 μg, PPAR-α-null mice
  number of infiltrating cells and edema in PPAR-α-null animals: had no effect
[1]; PEA 0.1-50 μg in sponge, 3 days, wild-type mice
  number of infiltrating cells: dose-dependently reduced
[1]; PEA in sponge, wild-type mice, data not shown
  edema: dose-dependently reduced

## O=C(N[C@H]1COC1=O)c1ccc(-c2ccccc2)cc1 [URB894, (S)—N-(2-oxooxetan-3-yl)biphenyl-4-carboxamide]
Recombinant NAAA
  IC50: 115 ± 13 nM

## NC(=O)c1cccc(-c2cccc(OC(=O)NC3CCCCC3)c2)c1 [URB597, reference compound]
[1]; 30 μg in sponge, 3 days
  anti-inflammatory effect: no anti-inflammatory effect

## O=C(CCc1ccccc1)N[C@H]1COC1=O [URB783, (S)—N-(2-oxooxetan-3-yl)-3-phenylpropionamide]
[1]; [2]
  endogenous PEA levels: restored PEA to basal levels
  number of infiltrating cells: significantly reduced
[1]; PPAR-α null mice
  anti-inflammatory effects in PPAR-α null mice: absent
[1]; in sponge, data not shown
  exudates volume: significantly reduced
Spinal cord injury
  expression of iNOS: significant reduction
  other markers of inflammation and cell apoptosis (PAR, nitrotyrosine, Fas-ligand, Bax, Bcl-2, TUNEL): significant reduction
Recombinant NAAA
  IC50: 420 ± 20 nM
